Measurements from patent US11357779B2 (G1 Therapeutics, Inc., priority 2018, dated 2022).
Read-outs that look alike come from different tables or passages of the source.

Experiment: Plasma concentration versus time of Compound I and metabolite Compound III in patients dosed QD or BID with Form B of Compound II plus fulvestrant
Assay type: in vivo, human
Conditions: human, plasma, oral; for concentration at 8 h: Day 1, 8.0 h; for concentration at 10 h: Day 1, 10.0 h; for concentration at 12 h: Day 1, 12.0 h; for concentration at 8 day: Day 8; for concentration at 15 day: Day 15; for concentration at 22 day: Day 22
Source text: Patients were enrolled into 1 of 2 parallel, independently operating, dose-escalation dosing cohorts with Form B of Compound II administered continuously either once daily (QD) or twice daily (BID) with food with fixed-dose fulvestrant (intramuscularly every 14 days for the first three injections and then every 28 days). Pre- or perimenopausal patients also received goserelin for the duration of study treatment. A […] agonist was started at least 28 days before the first dose of Form B, and those patients who were taking another LHRH agonist were switched to goserelin on Day 1. Patients were split into […] cohorts providing once a day (QD) dosing of 200 mg, 300 mg, 400 mg, 500 mg, or 650 mg of Form B, or twice a day (BID) dosing of 100 mg, 150 mg, or 200 mg of Form B. The second dose in BID cohorts was not administered in the evening until at least 12 hours after the initial morning dose of Form B. The dosing cohorts for Form B of Compound II are provided in Table 1.
Blood samples were collected at the following time points relative to the morning dose of Form B at Day 1 and at Day 29: pre-dose (0 hour) and 1, 2, 3, 4, 6, 8, 10, 12 (prior to the evening dose in the BID cohorts), and 24 (prior to the next day's morning dose) hours after dosing. A 5-minute time window was allowed for samples collected between the predose and 3 hours after Form B dosing. A 15-minute window was allowed for samples collected between 4 to 12 hours after Form B dosing. A 1-hour window was allowed for the sample collected 24 hours after Form B dosing. Blood samples for Compound I PK trough levels were collected pre-dose at Day 8, Day 15, and Day 22 prior to the morning administration of Compound I. Plasma concentrations of Compound I and its metabolite, Compound III, were measured using validated methods.
Analysis of plasma concentration versus time data for calculation of standard pharmacokinetic (PK) parameters following oral administration was conducted using Phoenix WinNonlin version 6.3 using actual blood sampling times.

[1] = 100 mg, 100 mg BID of Form B, Mean, read-out: Compound III Concentration
[2] = 100 mg, 100 mg BID of Form B, Median, read-out: Compound III Concentration
[3] = 100 mg, Cohort 6, 100 mg BID of Form B, read-out: Trough Compound III Concentration, Median
[4] = 100 mg, Cohort 6, 100 mg BID of Form B, read-out: Trough Compound III Concentration, Min
[5] = 400 mg, Cohort 3, 400 mg QD of Form B, read-out: Trough Compound III Concentration, Max
[6] = 400 mg, Cohort 3, 400 mg QD of Form B, read-out: Trough Compound III Concentration, Mean
[7] = 400 mg, Cohort 3, 400 mg QD of Form B, read-out: Trough Compound III Concentration, Median
[8] = 500 mg, Cohort 4, 500 mg QD of Form B, read-out: Trough Compound III Concentration, Max
[9] = 500 mg, Cohort 4, 500 mg QD of Form B, read-out: Trough Compound III Concentration, Mean
[10] = 500 mg, Cohort 4, 500 mg QD of Form B, read-out: Trough Compound III Concentration, Median
[11] = 500 mg, Cohort 4, 500 mg QD of Form B, read-out: Trough Compound III Concentration, Min

With `O=C1NCC2(CCCCC2)n2c1cc1cnc(Nc3ccc(N4CCNCC4)cn3)nc12` [Compound III, 2′-((5-(piperazin-1-yl)pyridin-2-yl)amino)-7′,8′-dihydro-6′H-spiro[cyclohexane-1,9′-pyrazino[1′,2′:1,5]pyrrolo[2,3-d]pyrimidin]-6′-one] as the molecule, how does the concentration at 0 h (100 mg, 100 mg BID of Form B, Day 1, 0.0 h, Mean, read-out: Compound III Concentration) read?
Its concentration at 0 h is 0 ng/mL.

And the concentration at 0 h (100 mg, 100 mg BID of Form B, Day 1, 0.0 h, Median, read-out: Compound III Concentration)?
The concentration at 0 h was 0 ng/mL.

What about the concentration at 1 h (100 mg, 100 mg BID of Form B, Day 1, 1.0 h, Mean, read-out: Compound III Concentration) of the same molecule?
Its concentration at 1 h is 0.248 ng/mL.

What about the concentration at 1 h (100 mg, 100 mg BID of Form B, Day 1, 1.0 h, Median, read-out: Compound III Concentration) of the same molecule?
Its concentration at 1 h is 0 ng/mL.

What about the concentration at 2 h (100 mg, 100 mg BID of Form B, Day 1, 2.0 h, Mean, read-out: Compound III Concentration) of the same molecule?
The concentration at 2 h was 1.04 ng/mL.

What about the concentration at 2 h (100 mg, 100 mg BID of Form B, Day 1, 2.0 h, Median, read-out: Compound III Concentration) of the same molecule?
Its concentration at 2 h is 1 ng/mL.

What about the concentration at 3 h (100 mg, 100 mg BID of Form B, Day 1, 3.0 h, Mean, read-out: Compound III Concentration) of the same molecule?
The concentration at 3 h was 1.41 ng/mL.

What about the concentration at 3 h (100 mg, 100 mg BID of Form B, Day 1, 3.0 h, Median, read-out: Compound III Concentration) of the same molecule?
Its concentration at 3 h is 1.42 ng/mL.

What about the concentration at 4 h (100 mg, 100 mg BID of Form B, Day 1, 4.0 h, Mean, read-out: Compound III Concentration) of the same molecule?
Its concentration at 4 h is 1.25 ng/mL.

And the concentration at 4 h (100 mg, 100 mg BID of Form B, Day 1, 4.0 h, Median, read-out: Compound III Concentration)?
Its concentration at 4 h is 1.13 ng/mL.

And the concentration at 6 h (100 mg, 100 mg BID of Form B, Day 1, 6.0 h, Mean, read-out: Compound III Concentration)?
Its concentration at 6 h is 0.471 ng/mL.

And the concentration at 6 h (100 mg, 100 mg BID of Form B, Day 1, 6.0 h, Median, read-out: Compound III Concentration)?
Its concentration at 6 h is 0.382 ng/mL.

What about the concentration at 8 h [1] of the same molecule?
The concentration at 8 h was 0.219 ng/mL.

And the concentration at 8 h [2]?
The concentration at 8 h was 0 ng/mL.

And the concentration at 10 h [1]?
The concentration at 10 h was 0 ng/mL.

What about the concentration at 10 h [2] of the same molecule?
The concentration at 10 h was 0 ng/mL.

And the concentration at 12 h [1]?
The concentration at 12 h was 0.0917 ng/mL.

What about the concentration at 12 h [2] of the same molecule?
The concentration at 12 h was 0 ng/mL.

What about the concentration at 8 day [3] of the same molecule?
Its concentration at 8 day is 0.481 ng/mL.

And the concentration at 8 day [4]?
Its concentration at 8 day is 0 ng/mL.

And the concentration at 15 day [3]?
Its concentration at 15 day is 0.895 ng/mL.

What about the concentration at 15 day [4] of the same molecule?
Its concentration at 15 day is 0 ng/mL.

What about the concentration at 22 day [3] of the same molecule?
The concentration at 22 day was 0.403 ng/mL.

What about the concentration at 22 day [4] of the same molecule?
Its concentration at 22 day is 0 ng/mL.

And the concentration at 0 h (150 mg, 150 mg BID of Form B, Day 1, 0.0 h, Median, read-out: Compound III Concentration)?
The concentration at 0 h was 0 ng/mL.

What about the concentration at 1 h (150 mg, 150 mg BID of Form B, Day 1, 1.0 h, Median, read-out: Compound III Concentration) of the same molecule?
Its concentration at 1 h is 1.52 ng/mL.

What about the concentration at 8 day [5] of the same molecule?
Its concentration at 8 day is 0.702 ng/mL.

And the concentration at 8 day [6]?
The concentration at 8 day was 0.406 ng/mL.

What about the concentration at 8 day [7] of the same molecule?
Its concentration at 8 day is 0.515 ng/mL.

And the concentration at 15 day [5]?
The concentration at 15 day was 0.665 ng/mL.

What about the concentration at 15 day [6] of the same molecule?
The concentration at 15 day was 0.435 ng/mL.

What about the concentration at 15 day [7] of the same molecule?
The concentration at 15 day was 0.64 ng/mL.

And the concentration at 22 day [5]?
Its concentration at 22 day is 0.935 ng/mL.

What about the concentration at 22 day [6] of the same molecule?
Its concentration at 22 day is 0.729 ng/mL.

And the concentration at 22 day [7]?
The concentration at 22 day was 0.736 ng/mL.

And the concentration at 22 day (400 mg, Cohort 3, 400 mg QD of Form B, read-out: Trough Compound III Concentration, Min)?
Its concentration at 22 day is 0.515 ng/mL.

What about the concentration at 8 day [8] of the same molecule?
The concentration at 8 day was 1.98 ng/mL.

And the concentration at 8 day [9]?
Its concentration at 8 day is 1.71 ng/mL.

And the concentration at 8 day [10]?
Its concentration at 8 day is 1.62 ng/mL.

What about the concentration at 8 day [11] of the same molecule?
Its concentration at 8 day is 1.53 ng/mL.

And the concentration at 15 day [8]?
Its concentration at 15 day is 2.66 ng/mL.

And the concentration at 15 day [9]?
Its concentration at 15 day is 2.07 ng/mL.

What about the concentration at 15 day [10] of the same molecule?
The concentration at 15 day was 2.15 ng/mL.

And the concentration at 15 day [11]?
Its concentration at 15 day is 1.33 ng/mL.

And the concentration at 22 day [8]?
The concentration at 22 day was 2.11 ng/mL.

And the concentration at 22 day [9]?
Its concentration at 22 day is 1.73 ng/mL.

What about the concentration at 22 day [10] of the same molecule?
Its concentration at 22 day is 1.58 ng/mL.

What about the concentration at 22 day [11] of the same molecule?
Its concentration at 22 day is 1.5 ng/mL.

And the concentration at 0 h (500 mg, Cohort 4, 500 mg QD of Form B, Day 29, 0.0 h, read-out: Compound III Concentration, Mean)?
Its concentration at 0 h is 1.76 ng/mL.

What about the concentration at 0 h (500 mg, Cohort 4, 500 mg QD of Form B, Day 29, 0.0 h, read-out: Compound III Concentration, Min) of the same molecule?
Its concentration at 0 h is 1.41 ng/mL.

And the concentration at 1 h (500 mg, Cohort 4, 500 mg QD of Form B, Day 29, 1.0 h, read-out: Compound III Concentration, Mean)?
Its concentration at 1 h is 2.98 ng/mL.

What about the concentration at 1 h (500 mg, Cohort 4, 500 mg QD of Form B, Day 29, 1.0 h, read-out: Compound III Concentration, Min) of the same molecule?
Its concentration at 1 h is 2.06 ng/mL.

And the concentration at 2 h (500 mg, Cohort 4, 500 mg QD of Form B, Day 29, 2.0 h, read-out: Compound III Concentration, Mean)?
The concentration at 2 h was 4.39 ng/mL.

What about the concentration at 2 h (500 mg, Cohort 4, 500 mg QD of Form B, Day 29, 2.0 h, read-out: Compound III Concentration, Min) of the same molecule?
The concentration at 2 h was 3.61 ng/mL.

And the concentration at 3 h (500 mg, Cohort 4, 500 mg QD of Form B, Day 29, 3.0 h, read-out: Compound III Concentration, Mean)?
Its concentration at 3 h is 5.9 ng/mL.

And the concentration at 3 h (500 mg, Cohort 4, 500 mg QD of Form B, Day 29, 3.0 h, read-out: Compound III Concentration, Min)?
Its concentration at 3 h is 4.66 ng/mL.

And the concentration at 4 h (500 mg, Cohort 4, 500 mg QD of Form B, Day 29, 4.0 h, read-out: Compound III Concentration, Mean)?
Its concentration at 4 h is 5.77 ng/mL.

What about the concentration at 4 h (500 mg, Cohort 4, 500 mg QD of Form B, Day 29, 4.0 h, read-out: Compound III Concentration, Min) of the same molecule?
The concentration at 4 h was 4.04 ng/mL.

And the concentration at 6 h (500 mg, Cohort 4, 500 mg QD of Form B, Day 29, 6.0 h, read-out: Compound III Concentration, Mean)?
The concentration at 6 h was 4.18 ng/mL.

And the concentration at 6 h (500 mg, Cohort 4, 500 mg QD of Form B, Day 29, 6.0 h, read-out: Compound III Concentration, Min)?
Its concentration at 6 h is 3.55 ng/mL.
